Marks after values point to notes of the source that are not given here.
Legend:
Myzus persicae = experiment: Contact mortality (Leaf Disc Method); type: in vivo; conditions: Table 4, application dose 3 cc/l (0.3%), Abbott's corrected
Tuta absoluta = experiment: Contact mortality (Leaf Disc Method); conditions: Table 3; application dose 3 cc/l (0.3%); Abbott's corrected; 24 h
Tetranychus urticae = experiment: Contact mortality (Leaf Disc Method); type: in vivo; conditions: Table 5, application dose 3 cc/l (0.3%), Abbott's corrected
[1] = test system: Frankliniella occidentalis; experiment: Contact mortality (Leaf Disc Method); type: in vivo; conditions: Table 4, application dose 3 cc/l (0.3%), Abbott's corrected
Spodoptera littoralis = experiment: Contact mortality (Leaf Disc Method); conditions: Table 3; application dose 3 cc/l (0.3%); Abbott's corrected; 24 h
Procedure: Which is compared to individual solvent, using different solvents in order to extract active principles from vegetable matrix in the step b) claimed process and a third option that is evaporated the resulting solvent in the extraction process. Vegetable matrix is Carum carvi seed. Three kinds of treatments previously mentioned are: • Treatment A: Individual solvent • Treatment B: Plant extract without solvent. The solvent was removed by vacuum concentration and the composition was prepared using the crude extract in an aqueous solution in 2% Tween^Tm24. • Treatment C: Plant extract with different solvents.
The biopesticidal activity of the different treatments is tested in vitro against two lepidopteran pests: polyphagous Spodoptera littoralis and olyphagous Tuta absoluta. Aside from benzyl alcohol, solvents frequently used to formulate chemical products such as ethanol, isopropanol and water are used in the treatments. Table 3. In vitro trials against chewing lepidopteran pests
The objective of this bioassay is to evaluate the effect of test items on the mortality of adult insects and mites in a short/medium-term (0-24 hours) by topical application. Tests were conducted in plastic net bottles. A total of 10 replicates for each treatment (tests items and negative control) were used in each experiment and temporarily replicated 3 times along the week. (Figure 4)
Numbers of live and dead adult insects and mites were counted at 24 h post-treatment. Adult insects and mites were considered dead if no movement was apparent after probing with the tip of a fine brush under stereoscopic magnifying glass. Mortality percentage was calculated in treatment and control groups. If the mortality in negative control is above 20% the test was discarded.
Means of %M were compared using a one-way analysis of variance (ANOVA, p<0.05) and LSD-test as a post hoc test to verify significant differences between single treatments using Statgraphics Centurion XVII software. When nonnormality in the data was detected, an additional Kruskal-Wallis test was conducted, and Box-and-Whisker Plot (Median Notch) was presented. • Antifeedant effects

Bemisia tabaci = experiment: Contact mortality (Leaf Disc Method); type: in vivo; conditions: Table 4, application dose 3 cc/l (0.3%), Abbott's corrected
[2] = general property stated in the summary; cited from earlier work

| SMILES | Contact mortality (%M) Myzus persicae (adults) (Myzus persicae) | Contact mortality (%M) Tuta absoluta (Tuta absoluta) | Contact mortality (%M) Tetranychus urticae (adults) (Tetranychus urticae) | Contact mortality (%M) Frankliniella occidentalis (immature) [1] | Contact mortality (%M) Spodoptera littoralis (Spodoptera littoralis) | Contact mortality (%M) Bemisia tabaci (adults) (Bemisia tabaci) | solubility in water [2] [g/100 mL] | Contact mortality (%M) Myzus persicae (adults) (Myzus persicae; 1440 min) | Contact mortality (%M) Tetranychus urticae (adults) (Tetranychus urticae; 1440 min) | Contact mortality (%M) Frankliniella occidentalis (immature) ([1]; 1440 min) | Contact mortality (%M) Bemisia tabaci (adults) (Bemisia tabaci; 1440 min) |
| --- | --- | --- | --- | --- | --- | --- | --- | --- | --- | --- | --- |
| OCc1ccccc1 [Benzyl alcohol (BnOH), Benzyl alcohol] | 19.8 ± 6.2 ^d % | 29.6 ± 5.7 ^d % | 33.4 ± 4.1 ^d % | 12.5 ± 7.8 ^d % | 17.4 ± 6.2 ^de % | 49.8 ± 6.2 ^cd % | 4 | – | – | – | – |
| CCO [Ethanol (EtOH), Ethanol] | 16.7 ± 9.1 ^d % | 0.0 ± 0.0 ^e % | 0.0 ± 0.0 ^e % | 0.0 ± 0.0 ^e % | 0.0 ± 0.0 ^f % | 23.5 ± 8.4 ^d % | – | – | – | – | – |
| CC(C)O [Isopropanol (IPN), Isopropanol] | 0.0 ± 0.0 ^e % | 11.4 ± 7.2 ^e % | 0.0 ± 0.0 ^e % | 0.0 ± 0.0 ^e % | 4.2 ± 6.1 ^f % | 0.0 ± 0.0 ^e % | – | – | – | – | – |
| O [Water] | – | 0.0 ± 0.0 ^e % | – | – | 0.0 ± 0.0 ^f % | – | – | 0.0 ± 0.0 ^e % | 0.0 ± 0.0 ^e % | 0.0 ± 0.0 ^e % | 0.0 ± 0.0 ^e % |
